US8952157B2, “Apoptosis-inducing agents for the treatment of cancer and immune and autoimmune diseases” (AbbVie Inc., priority 2008, dated 2015)
pKi: −log10 of the molar value.

Each compound was assayed against GST-Bcl-2 (Homo sapiens (Human), UniProt P10415) (assay: Time Resolved-Fluorescence Resonance Energy Transfer (TR-FRET) Bcl-2 binding assay). Conditions: GST-Bcl-2 1 nM, F-Bak peptide probe 100 nM, Tb-anti-GST antibody 1 nM; Ki by Wang's equation.
Outline: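 Competition TR-FRET: GST-Bcl-2 with fluorescent Bak peptide probe and Tb-anti-GST antibody, compounds serially diluted from 50 μM (2× start, 10% DMSO).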

GST-Bcl-2, sequence (P10415 whole entry): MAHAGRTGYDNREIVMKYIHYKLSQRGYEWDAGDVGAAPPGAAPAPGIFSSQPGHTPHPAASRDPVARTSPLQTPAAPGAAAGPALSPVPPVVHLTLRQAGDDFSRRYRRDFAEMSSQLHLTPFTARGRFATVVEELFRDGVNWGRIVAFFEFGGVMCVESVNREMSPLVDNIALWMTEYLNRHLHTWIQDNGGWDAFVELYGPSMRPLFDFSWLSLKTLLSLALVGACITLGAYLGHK

SMILES	pKi
CC1(C)CCC(CN2CCN(c3ccc(C(=O)NS(=O)(=O)c4ccc(NC5CCN(C6CCOCC6)CC5)c([N+](=O)[O-])c4)c(Oc4cccc(F)c4Cl)c3)CC2)=C(c2ccc(Cl)cc2)C1 [Example 178, 2-(2-chloro-3-fluorophenoxy)-4-(4-{[2-(4-chlorophenyl)-4,4-dimethylcyclohex-1-en-1-yl]methyl}piperazin-1-yl)-N-({3-nitro-4-[(1-tetrahydro-2H-pyran-4-ylpiperidin-4-yl)amino]phenyl}sulfonyl)benzamide]	9.76
CN(C)CCCNc1ccc(S(=O)(=O)NC(=O)c2ccc(N3CCN(CC4=C(c5ccc(Cl)cc5)CC(C)(C)CC4)CC3)cc2Oc2ccccc2Cl)cc1[N+](=O)[O-] [Example 179, 2-(2-chlorophenoxy)-4-(4-{[2-(4-chlorophenyl)-4,4-dimethylcyclohex-1-en-1-yl]methyl}piperazin-1-yl)-N-[(4-{[3-(dimethylamino)propyl]amino}-3-nitrophenyl)sulfonyl]benzamide]	10.44
COc1ccccc1Oc1cc(N2CCN(CC3=C(c4ccc(Cl)cc4)CC(C)(C)CC3)CC2)ccc1C(=O)NS(=O)(=O)c1ccc(NC2CCN(C)CC2)c([N+](=O)[O-])c1 [Example 180, 4-(4-{[2-(4-chlorophenyl)-4,4-dimethylcyclohex-1-en-1-yl]methyl}piperazin-1-yl)-2-(2-methoxyphenoxy)-N-({4-[(1-methylpiperidin-4-yl)amino]-3-nitrophenyl}sulfonyl)benzamide]	9.95
Cc1ccccc1Oc1cc(N2CCN(CC3=C(c4ccc(Cl)cc4)CC(C)(C)CC3)CC2)ccc1C(=O)NS(=O)(=O)c1ccc(NC2CCN(C)CC2)c([N+](=O)[O-])c1 [Example 181, 4-(4-{[2-(4-chlorophenyl)-4,4-dimethylcyclohex-1-en-1-yl]methyl}piperazin-1-yl)-2-(2-methylphenoxy)-N-({4-[(1-methylpiperidin-4-yl)amino]-3-nitrophenyl}sulfonyl)benzamide]	9.92
Cc1cccc(Oc2cc(N3CCN(CC4=C(c5ccc(Cl)cc5)CC(C)(C)CC4)CC3)ccc2C(=O)NS(=O)(=O)c2ccc(NC3CCN(C)CC3)c([N+](=O)[O-])c2)c1 [Example 182, 4-(4-{[2-(4-chlorophenyl)-4,4-dimethylcyclohex-1-en-1-yl]methyl}piperazin-1-yl)-2-(3-methylphenoxy)-N-({4-[(1-methylpiperidin-4-yl)amino]-3-nitrophenyl}sulfonyl)benzamide]	9.76
CN1CCC(Nc2ccc(S(=O)(=O)NC(=O)c3ccc(N4CCN(Cc5cc6c(cc5-c5ccc(Cl)cc5)OCO6)CC4)cc3Oc3ccccc3Cl)cc2[N+](=O)[O-])CC1 [Example 183, 2-(2-chlorophenoxy)-4-(4-{[6-(4-chlorophenyl)-1,3-benzodioxol-5-yl]methyl}piperazin-1-yl)-N-({4-[(1-methylpiperidin-4-yl)amino]-3-nitrophenyl}sulfonyl)benzamide]	8.60
CN1CCN(Nc2ccc(S(=O)(=O)NC(=O)c3ccc(N4CCN(CC5=C(c6ccc(Cl)cc6)CC(C)(C)CC5)CC4)cc3Oc3ccccc3Cl)cc2[N+](=O)[O-])CC1 [Example 184, 2-(2-chlorophenoxy)-4-(4-{[2-(4-chlorophenyl)-4,4-dimethylcyclohex-1-en-1-yl]methyl}piperazin-1-yl)-N-({4-[(4-methylpiperazin-1-yl)amino]-3-nitrophenyl}sulfonyl)benzamide]	9.81
CN1CCN(Nc2ccc(S(=O)(=O)NC(=O)c3ccc(N4CCN(CC5=C(c6ccc(Cl)cc6)CC(C)(C)OC5)CC4)cc3Oc3cccc(Cl)c3)cc2[N+](=O)[O-])CC1 [Example 185, 2-(3-chlorophenoxy)-4-(4-{[4-(4-chlorophenyl)-6,6-dimethyl-5,6-dihydro-2H-pyran-3-yl]methyl}piperazin-1-yl)-N-({4-[(4-methylpiperazin-1-yl)amino]-3-nitrophenyl}sulfonyl)benzamide]	10.08
CN1CCN(Nc2ccc(S(=O)(=O)NC(=O)c3ccc(N4CCN(CC5=C(c6ccc(Cl)cc6)CC(C)(C)OC5)CC4)cc3Oc3cccc(F)c3F)cc2[N+](=O)[O-])CC1 [Example 186, 4-(4-{[4-(4-chlorophenyl)-6,6-dimethyl-5,6-dihydro-2H-pyran-3-yl]methyl}piperazin-1-yl)-2-(2,3-difluorophenoxy)-N-({4-[(4-methylpiperazin-1-yl)amino]-3-nitrophenyl}sulfonyl)benzamide]	10.46
CC1(C)CCC(CN2CCN(c3ccc(C(=O)NS(=O)(=O)c4ccc(NC5CCN(CC6CC6)CC5)c([N+](=O)[O-])c4)c(Oc4cccc(Cl)c4)c3)CC2)=C(c2ccc(Cl)cc2)C1 [Example 187, 2-(3-chlorophenoxy)-4-(4-{[2-(4-chlorophenyl)-4,4-dimethylcyclohex-1-en-1-yl]methyl}piperazin-1-yl)-N-[(4-{[1-(cyclopropylmethyl)piperidin-4-yl]amino}-3-nitrophenyl)sulfonyl]benzamide]	10.27
CC1(C)CCC(CN2CCN(c3ccc(C(=O)NS(=O)(=O)c4ccc(NC5CCN(CC6CC6)CC5)c([N+](=O)[O-])c4)c(Oc4ccccc4Cl)c3)CC2)=C(c2ccc(Cl)cc2)C1 [Example 188, 2-(2-chlorophenoxy)-4-(4-{[2-(4-chlorophenyl)-4,4-dimethylcyclohex-1-en-1-yl]methyl}piperazin-1-yl)-N-[(4-{[1-(cyclopropylmethyl)piperidin-4-yl]amino}-3-nitrophenyl)sulfonyl]benzamide]	10.14
CC1(C)CCC(CN2CCN(c3ccc(C(=O)NS(=O)(=O)c4ccc(NC5CCN(CCN6CCOCC6)CC5)c([N+](=O)[O-])c4)c(Oc4cccc(Cl)c4)c3)CC2)=C(c2ccc(Cl)cc2)C1 [Example 190, 2-(3-chlorophenoxy)-4-(4-{[2-(4-chlorophenyl)-4,4-dimethylcyclohex-1-en-1-yl]methyl}piperazin-1-yl)-N-[(4-{[1-(2-morpholin-4-ylethyl)piperidin-4-yl]amino}-3-nitrophenyl)sulfonyl]benzamide]	10.11
CN1CCC(O)(CNc2ccc(S(=O)(=O)NC(=O)c3ccc(N4CCN(CC5=C(c6ccc(Cl)cc6)CC(C)(C)CC5)CC4)cc3Oc3ccccc3Cl)cc2[N+](=O)[O-])CC1 [Example 192, 2-(2-chlorophenoxy)-4-(4-{[2-(4-chlorophenyl)-4,4-dimethylcyclohex-1-en-1-yl]methyl}piperazin-1-yl)-N-[(4-{[(4-hydroxy-1-methylpiperidin-4-yl)methyl]amino}-3-nitrophenyl)sulfonyl]benzamide]	10.62
CC1(C)CCC(CN2CCN(c3ccc(C(=O)NS(=O)(=O)c4ccc(NC5CCN(C6CCOCC6)CC5)c([N+](=O)[O-])c4)c(Oc4cc5cc[nH]c5cc4F)c3)CC2)=C(c2ccc(Cl)cc2)C1 [Example 193, 4-(4-{[2-(4-chlorophenyl)-4,4-dimethylcyclohex-1-en-1-yl]methyl}piperazin-1-yl)-2-[(6-fluoro-1H-indol-5-yl)oxy]-N-({3-nitro-4-[(1-tetrahydro-2H-pyran-4-ylpiperidin-4-yl)amino]phenyl}sulfonyl)benzamide]	10.19
CN1CC[C@H](Nc2ccc(S(=O)(=O)NC(=O)c3ccc(N4CCN(CC5=C(c6ccc(Cl)cc6)CC(C)(C)CC5)CC4)cc3Oc3cccc(Cl)c3)cc2[N+](=O)[O-])C1 [Example 194, 2-(3-chlorophenoxy)-4-(4-{[2-(4-chlorophenyl)-4,4-dimethylcyclohex-1-en-1-yl]methyl}piperazin-1-yl)-N-[(4-{[(3S)-1-methylpyrrolidin-3-yl]amino}-3-nitrophenyl)sulfonyl]benzamide]	9.50
CN1CC[C@@H](Nc2ccc(S(=O)(=O)NC(=O)c3ccc(N4CCN(CC5=C(c6ccc(Cl)cc6)CC(C)(C)CC5)CC4)cc3Oc3cccc(Cl)c3)cc2[N+](=O)[O-])C1 [Example 195, 2-(3-chlorophenoxy)-4-(4-{[2-(4-chlorophenyl)-4,4-dimethylcyclohex-1-en-1-yl]methyl}piperazin-1-yl)-N-[(4-{[(3R)-1-methylpyrrolidin-3-yl]amino}-3-nitrophenyl)sulfonyl]benzamide]	9.16
CN1CCC(Nc2ccc(S(=O)(=O)NC(=O)c3ccc(N4CCN(CC5=C(c6ccc(Cl)cc6)CC(C)(C)CC5)CC4)cc3Oc3cccc(-c4ccc[nH]4)c3)cc2[N+](=O)[O-])CC1 [Example 197, 4-(4-{[2-(4-chlorophenyl)-4,4-dimethylcyclohex-1-en-1-yl]methyl}piperazin-1-yl)-N-({4-[(1-methylpiperidin-4-yl)amino]-3-nitrophenyl}sulfonyl)-2-[3-(1H-pyrrol-2-yl)phenoxy]benzamide]	9.66
CN1CCC(O)(CNc2ccc(S(=O)(=O)NC(=O)c3ccc(N4CCN(CC5=C(c6ccc(Cl)cc6)CC(C)(C)CC5)CC4)cc3Oc3cccc(F)c3)cc2[N+](=O)[O-])CC1 [Example 198, 4-(4-{[2-(4-chlorophenyl)-4,4-dimethylcyclohex-1-en-1-yl]methyl}piperazin-1-yl)-2-(3-fluorophenoxy)-N-[(4-{[(4-hydroxy-1-methylpiperidin-4-yl)methyl]amino}-3-nitrophenyl)sulfonyl]benzamide]	> 11.00
CN1CCN(Nc2ccc(S(=O)(=O)NC(=O)c3ccc(N4CCN(CC5=C(c6ccc(Cl)cc6)CC(C)(C)CC5)CC4)cc3Oc3cccc(Cl)c3)cc2[N+](=O)[O-])CC1 [Example 199, 2-(3-chlorophenoxy)-4-(4-{[2-(4-chlorophenyl)-4,4-dimethylcyclohex-1-en-1-yl]methyl}piperazin-1-yl)-N-({4-[(4-methylpiperazin-1-yl)amino]-3-nitrophenyl}sulfonyl)benzamide]	9.61
CN1CCC(Nc2ccc(S(=O)(=O)NC(=O)c3ccc(N4CCN(CC5=C(c6ccc(Cl)cc6)CC(C)(C)CC5)CC4)cc3Oc3cc4cc[nH]c4c(F)c3F)cc2[N+](=O)[O-])CC1 [Example 200, 4-(4-{[2-(4-chlorophenyl)-4,4-dimethylcyclohex-1-en-1-yl]methyl}piperazin-1-yl)-2-[(6,7-difluoro-1H-indol-5-yl)oxy]-N-({4-[(1-methylpiperidin-4-yl)amino]-3-nitrophenyl}sulfonyl)benzamide]	10.09
